Test results taken from patent US20240325544A1, “CATIONIC LIPID FOR COVALENT MODIFICATION OF PEPTIDES” (PharmalN Corporation, priority 2023, published 2024).
Marks after values point to notes of the source that are not given here. Bridge positions count the residues as written; N and C are the ends. Square brackets hold non-standard residues; d marks the D form. Peptide text beside a SMILES is read from it. * marks the point of attachment. Palmitoyl = CCCCCCCCCCCCCCCC(=O)*; Dab = NCC[C@H](N)C(=O)O; Dap = NC[C@H](N)C(=O)O; AEEA = NCCOCCOCC(=O)O

What was measured:
cGMP [1] = assay: Plasma cGMP profile after single SC injection in CD-1 mice (FIG. 1B); assay type: in vivo; conditions: 1.0 mg/kg SC, 0-24 hours
Method: (§1) The animals were kept in PharmaIN animal facility with controlled temperature (68-74° F.) and humidity (30-60%), and a 12-hour light/dark cycle. […] Lead buffer was used to formulate or dissolve all test articles on the day of administration. Blood sampling: Blood samples were collected via retro-orbital bleed at several timepoints (0, 0.5, 1, 2, 4, 6, 8, and 24 hours) and processed in K2EDTA tubes (2000× g; 15 min, 4° C. within 30 minutes after collection) to obtain plasma. Plasma samples were aliquoted and stored at −80° C. until analysis. Biochemical analysis: For pharmacokinetic study, plasma aliquots were thawed at 4° C. then analyzed using a commercially available CNP ELISA kit from Phoenix Pharmaceuticals (cat #EKE-012-03), which detects the cyclic structure of CNP and all CNP derivatives with the same level of reactivity to the ELISA kit. […] For pharmacodynamic or bioactivity study of cGMP, plasma aliquots were thawed at 4° C. then analyzed using a commercially available cGMP kit from Abcam (ab133052, Waltham, MA).

[2] = system: inflammatory cytokines (MCP1, IL-6, TNFα) in BALF; assay: LPS ALI model: inflammatory cytokines in BALF by ELISA (Table 4); assay type: in vivo, mice; conditions: LPS 0.05 mg/kg IT; SEQ 0.3 mg/kg SC, Sivelestat 150 mg/kg IP; 24 hours
Method: Animal care and treatment: Male C57BL/6J mice (6 weeks-old) were purchased from Kyudo (Saga, Japan) and maintained under a 12-hour light/12-hour dark cycle with free access to water and standard mouse diet (MF diet, Oriental Yeast Co., Ltd. Tokyo, Japan). Drug administration: Mice were administered LPS (0.05 mg/kg IT; Sigma-Aldrich) followed by treatment with various test articles, including Sivelestat (150 mg/kg; Nipro, Osaka, Japan), an inhibitor of human neutrophil elastase, injected IP as a positive control, and cationic alkyl modified CNPs (SEQ ID NO: 31, 29, and 30; 0.3 mg/kg (0.1 μmol/kg) SC). The test articles were administered immediately after LPS injection. Additionally, a normal control (NC) group without LPS administration and a Control group receiving only LPS without any test article were included. After 24 hours, the mice were euthanized under isoflurane anesthesia and BALF was harvested. Biochemical analysis: ALI and ARDS are often characterized by increased levels of inflammatory cytokines, including Macrophage Chemoattractant Protein-1 (MCP1), Interleukin-6 (IL-6), and […] (TNFα), in BALF. Decreases in their concentration can indicate the resolution of ALI/ARDS. Concentration of each cytokine (MCP1, IL-6, and TNFα) was measured using an ELISA kit (R&D SYSTEMS, Minneapolis M N). […] Statistical analysis was based on Dunnett's test performed by using GraphPad. (n=5, 8, 8, 8, and 8; NC, Control, PC, SEQ ID NO: 31, SEQ ID NO: 29). *** P<0.001, ** P<0.01, * P<0.05 vs each corresponding Control group.

[3] = Plasma concentration of respective natriuretic peptide by ELISA after SC bolus in CD-1 mice (pharmacokinetics, Table 3); conditions: male, CD-1, mouse, in vivo, sc, 1 mg/kg
Summary of the method: (§2)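 Peptides given SC in sterile water; retro-orbital blood at 2 and 6 h post-dose (two bleeds per mouse), K2EDTA plasma. Plasma cGMP by commercial immunoassay kit; ANP, BNP or CNP plasma levels by peptide-specific ELISA.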

Sprague Dawley rats = conditions: rat, in vivo, sc
Method: Animal care and treatment: Male Sprague Dawley rats aged 8 to 10 weeks (Charles River, Hollister, CA) were housed in groups of two (n=3/group) in disposable polypropylene cages with rodent cob bedding at the PharmaIN animal facility. Animals had ad libitum access to food (LabDiet Pico Rodent #5053; Animal Specialties, Woodburn, OR) and water. Temperature (68-74° F.) and humidity (30-60%) were maintained within a controlled range, and a 12-hour light/dark cycle was used. […] Animals were monitored closely during the first 4 hours following injection, then hourly throughout the rest of the day for any signs of swelling or discoloration (dilatory side effect), lethargy (side effect), ataxia (ataxia is used as a marker of toxicity). Rats were allowed a 1-week wash-out period between bolus doses. Following final observations, animals were humanely euthanized through CO2 asphyxiation.

cGMP [4] = assay: Plasma cGMP after SC bolus of natriuretic peptides in CD-1 mice (pharmacodynamics, Table 3); assay type: in vivo; conditions: SC bolus 1.0 mg/kg (≤0.45 μmol/kg), baseline 10 +/−8 pmol/ml, n = 3-5
Summary of the method: as §2

[5] = mouse, in vivo, sc, 1 mg/kg
Method: FIGS. 1A-1B: PK/PD Profiles for single subcutaneous (SC) injection of native CNP (SEQ ID NO: 32), SEQ ID NO: 31, and SEQ ID NO: 29 at 1.0 mg/kg (0.45, 0.33, and 0.33 μmol/kg, respectively) in mice. Error bars represent standard error of the mean. FIG. 1A) Plasma CNP [mean (SEM); n=5] in CD-1 mice after subcutaneous administration of 1.0 mg/kg of native CNP (SEQ ID NO: 32), SEQ ID NO: 31, and SEQ ID NO: 29 (0.45, 0.33, and 0.33 μmol/kg, respectively) in buffer. […] Plasma CNP in CD-1 mice was measured by CNP ELISA kit from Phoenix Pharmaceuticals (EKE-012-03, Burlingame, CA).
as §1, with “Blood sampling: Blood samples were collected via retro-orbital bleed at several timepoints (0, 0.5, 1, 2, 4, 6, 8, and 24 hours) and processed in K2EDTA tubes (2000× g; 15 min, 4° C. within 30 minutes after collection) to obtain plasma. Plasma samples were aliquoted and stored at −80° C. until analysis.” left out

Structure (SMILES) | Plasma cGMP levels over time compared to native CNP (cGMP [1]) | IL-6 in BALF [2] | MCP1 in BALF [2] | TNFα in BALF [2] | level at 2 h [3] [ng/mL] | level at 6 h [3] [ng/mL] | Swelling and/or Discoloration in n = 3 (Sprague Dawley rats) | Plasma concentration of cGMP, 2 hr (cGMP [4]) | Plasma concentration of cGMP, 6 hr (cGMP [4]) | Increase of baseline plasma CNP levels [5]
CCCCCCCCCCCCCCCC(=O)NCCOCCOCC(=O)NCCOCCOCC(=O)NCCOCCOCC(=O)N[C@@H](CN)C(=O)N[C@@H](CN)C(=O)NCC(=O)N[C@@H](CC(C)C)C(=O)N[C@@H](CO)C(=O)N[C@@H](CCCCN)C(=O)NCC(=O)N[C@H]1CSSC[C@@H](C(=O)O)NC(=O)CNC(=O)[C@H](CC(C)C)NC(=O)CNC(=O)[C@H](CO)NC(=O)[C@H](CCC(N)=O)NC(=O)[C@H](CO)NC(=O)CNC(=O)[C@H]([C@@H](C)CC)NC(=O)[C@H](CCCNC(=N)N)NC(=O)[C@H](CC(=O)O)NC(=O)[C@H](CC(C)C)NC(=O)[C@H](CCCCN)NC(=O)[C@H](CC(C)C)NC(=O)CNC(=O)[C@H](Cc2ccccc2)NC1=O [SEQ ID NO: 31] ({Palmitoyl-AEEA-AEEA-AEEA}-[Dap][Dap]GLSKGCFGLKLDRIGSQSGLGC-OH; disulfide 8-24; C-terminus assumed) | sustained elevation of cGMP levels | 56* % Of Control | 50** % Of Control | 28** % Of Control | 76.8 | 14.8 | (3.3) μmol/kg | 98.34**** pmol/mL | 53.62*** pmol/mL | over 5 fold
CCCCCCCCCCCCCCCC(=O)NCCOCCOCC(=O)NCCOCCOCC(=O)NCCOCCOCC(=O)N[C@@H](CCN)C(=O)N[C@@H](CCN)C(=O)NCC(=O)N[C@@H](CC(C)C)C(=O)N[C@@H](CO)C(=O)N[C@@H](CCCCN)C(=O)NCC(=O)N[C@H]1CSSC[C@@H](C(=O)O)NC(=O)CNC(=O)[C@H](CC(C)C)NC(=O)CNC(=O)[C@H](CO)NC(=O)[C@H](CCC(N)=O)NC(=O)[C@H](CO)NC(=O)CNC(=O)[C@H]([C@@H](C)CC)NC(=O)[C@H](CCCNC(=N)N)NC(=O)[C@H](CC(=O)O)NC(=O)[C@H](CC(C)C)NC(=O)[C@H](CCCCN)NC(=O)[C@H](CC(C)C)NC(=O)CNC(=O)[C@H](Cc2ccccc2)NC1=O [SEQ ID NO: 29] ({Palmitoyl-AEEA-AEEA-AEEA}-[Dab][Dab]GLSKGCFGLKLDRIGSQSGLGC-OH; disulfide 8-24; C-terminus assumed) | sustained elevation of cGMP levels | 76 % Of Control | 69 % Of Control | 39** % Of Control | 18 | 8.93 | (3.1) μmol/kg | 157.31* pmol/mL | 65.65* pmol/mL | > 10 fold
